Read-outs that look alike come from different tables or passages of the source.
Tests used:
[1] = system: A375 cells; experiment: Cell viability experiment (Cell Titer-Glo), A375; assay type: cell-based
Protocol: (§1) Biological Test Method 2: Cell Viability Experiment
(§2) HT29 and A375 cells were plated in a 96-well cell culture plate at a density of 40,000 cells/well and 20,000 cells/well respectively, and the cells were cultured overnight. The compounds were serially diluted in a gradient of 1:3, the dilutions were added to the cell culture medium, and incubated with the cells in a 37° C. incubator for 3 days. The 96-well cell culture plate was taken from the incubator and equilibrated at room temperature for 30 minutes, then Cell Titer-Glo reagent (Promega Cat #G7573) was added at a ratio of 1:2, and the mixture was mixed thoroughly on a shaker for 2 minutes to promote cell lysis. The cell culture plate was incubated at room temperature for 10 minutes and then read on an Envision microplate reader (PerkinElmer). XLfit5 software was used for data analysis and mapping.

[2] = molecular target: T1, activated MEK1 (Homo sapiens, UniProt Q02750); experiment: MEK Lance Ultra experiment; assay type: biochemical; conditions: 0.07 nM activated MEK1, 2 nM non-activated ERK, 50 μM ATP; read-out: MEK potency IC50
T1 construct: purchased Millipore 14-429
T1 sequence (Q02750 whole entry): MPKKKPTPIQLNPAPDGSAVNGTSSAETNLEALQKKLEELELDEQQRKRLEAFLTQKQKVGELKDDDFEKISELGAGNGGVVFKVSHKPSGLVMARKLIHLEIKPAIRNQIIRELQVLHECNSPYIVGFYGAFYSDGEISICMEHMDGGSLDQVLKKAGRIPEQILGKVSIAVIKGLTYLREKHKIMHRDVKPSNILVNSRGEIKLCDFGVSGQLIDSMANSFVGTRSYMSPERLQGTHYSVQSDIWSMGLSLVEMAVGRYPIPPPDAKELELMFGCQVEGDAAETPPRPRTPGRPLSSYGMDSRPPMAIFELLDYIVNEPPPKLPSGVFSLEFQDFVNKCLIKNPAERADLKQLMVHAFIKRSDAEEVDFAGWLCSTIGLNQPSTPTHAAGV
Protocol: Biological Test Method 1: MEK Lance Ultra Experiment Compounds were serially diluted three-fold to 10 concentrations, two duplicates were set. Final test concentrations of the compounds ranged from 10 μM to 0.51 nM. 0.07 nM activated MEK1 (Millipore #14-429) and 2 nM non-activated ERK (Millipore #14-515) were mixed with the compounds or DMSO, the mixture was incubated at 23° C. for 30 minutes. Then 50 nM ULight labeled MBP (PerkinElmer #TRF0109-M) and 50 μM ATP (Invitrogen #PV3227) were added to initiate the reaction, and the mixture was incubated at 23° C. for 90 minutes. After the reaction was stopped by adding EDTA at a final concentration of 15 mM, 2 nM Eu-labeled anti-phosphorylated antibody (PerkinElmer #TRF0201-M) was added and incubated for 1 hour. The fluorescence signal data (excitation band: 320 nm; emission band: 665 nM/615 nM) was determined by an Envision microplate reader (PerkinElmer). XLfit5 software was used for data analysis and mapping.

[3] = system: HT-29 cell subcutaneous xenograft tumor; experiment: In vivo pharmacodynamics study on HT-29 cell subcutaneous xenograft tumor model; design: species or system BALB/c nude mouse; conditions: QD
Protocol: Biological Test Method 3: In Vivo Pharmacodynamics Study on HT-29 Cell Subcutaneous Xenograft Tumor Model in BALB/c Nude Mouse
Human colon cancer HT-29 cells (ATCC-HTB-38) were cultured in monolayer in vitro, with McCoy's 5a medium (Gibco, 1835937) supplemented with 10% fetal bovine serum, 100 U/mL penicillin and 100 μg/mL streptomycin, at 37° C. under 5% CO2. The cells were conventionally digested with trypsin-EDTA and passaged twice a week. When the cell saturation was 80%-90%, the cells were collected, counted and inoculated. 0.1 mL (5×10^6) of HT-29 cells was subcutaneously inoculated into the right back of each nude mouse. […] The diameter of the tumor was measured twice a week with a vernier caliper. The tumor volume is calculated by the formula: V=0.5a×b^2, wherein a and b represent the length and width respectively. The antitumor activity of the compounds was evaluated by TGI (%), which reflects the tumor growth inhibition rate. Calculation of TGI (%): TGI (%)=[(1−(average tumor volume at the end of administration in a treatment group−average tumor volume at the start of treatment in this treatment group))/(average tumor volume at the end of treatment in the solvent control group−average tumor volume at the start of treatment in the solvent control group)]×100%.

[4] = Pharmacokinetics study of the compounds in C57BL/6 mice; assay type: in vivo; conditions: male, mouse, single intravenous and oral dose, plasma; for bioavailability: read-out: Bioavailability F; for AUC: read-out: Comcentration quadrature AUC; for half-life: read-out: Half life T1/2 (converted)
Protocol: Biological Test Method 4: Pharmacokinetics Study of the Compounds in C57BL/6 Mice Experimental Materials: C57BL/6 mice (male, 18-22 g, 7-9 weeks old, Shanghai Lingchang) Experimental Procedure: The pharmacokinetic characteristics of the compounds in rodents were determined after intravenous and oral administration of the compounds by standard protocols. In the experiment, candidate compounds were formulated into clear solutions, and intravenously and orally administrated to […] in a single dose. The menstruum for intravenous and oral administration was DMSO, PEG and water at a certain ratio or Solutol, HPMC and SLS aqueous solutions at a certain ratio. The whole blood samples within 24 hours were collected, centrifuged at 3,000 rpm for 15 minutes, and the supernatants were isolated to obtain plasma samples. An acetonitrile solution containing an internal standard with a volume of 4 times as the plasma sample volume was added to precipitate the protein. After centrifugation, the supernatant was collected and an equal volume of water was added. After centrifugation, the supernatant was collected and injected to quantitatively analyze the blood drug concentration by LC-MS/MS analysis method, and the pharmacokinetic parameters were calculated, e.g., peak concentration, peak time, clearance, half-life, area under the drug concentration-time curve, bioavailability, etc.

[5] = system: HT29 cells; experiment: Cell viability experiment (Cell Titer-Glo), HT29; assay type: cell-based, human
Protocol: as §1, §2

[6] = Homo sapiens, A-375, 72 h, A375 cells, 3 days incubation, read-out: A375 IC50
[7] = Homo sapiens, HT-29, 72 h, HT29 cells, 3 days incubation, read-out: HT29 IC50

| SMILES | IC50 [1, 6] | IC50 [2] | clearance [4] | bioavailability [4] | AUC [4] | half-life [4] | IC50 [5, 7] | other results |
| --- | --- | --- | --- | --- | --- | --- | --- | --- |
| Cc1c(Nc2ccc(I)cc2F)c2c(=O)n(C3CC3)c(C)c(-c3cccc(NS(C)(=O)=O)c3)c2oc1=O [WX066] | 4.58 nM | 77.3 nM | 1.85 mL/min/kg | 99.2% | 28.6 µM·h | 7.62 h | 7.44 nM | TGI ([3]; 0.5 mpk, 21 days): 89% |
| Cc1c(NS(C)(=O)=O)cccc1-c1c(C)n(C2CC2)c(=O)c2c(Nc3ccc(I)cc3F)c(C)c(=O)oc12 [WX086] | – | 29.6 nM | 2.2 mL/min/kg | 76.8% | 23.4 µM·h | 7 h | – | IC50 ([1]; Homo sapiens, A-375, 72 h, read-out: A375 IC50, A375 cells, 3 days incubation): 0.4 nM; TGI ([3]; 0.5 mpk (0-11 D): 0.35 mpk (12-21 D), 21 days): 83.1%; IC50 ([5]; Homo sapiens, HT-29, 72 h, read-out: HT29 IC50, HT29 cells, 3 days incubation): 0.62 nM |
| Cc1c(NS(C)(=O)=O)cccc1-c1c(C)n(C2CC2)c(=O)c2c(Nc3ccc(I)cc3F)c(C)c(=O)oc12 (single isomer, unassigned) [WX113] | 0.37 nM | 5.61 nM | 2.92 mL/min/kg | 73.1% | 17.6 µM·h | 4.64 h | 0.82 nM | TGI ([3]; 0.2 mpk, 25 days (5 days administration, and 2 days break)): 82.8% |
| Cc1c(Nc2ccc(I)cc2F)c2c(=O)n(C3CC3)c(C)c(-c3cccc(CS(C)(=O)=O)c3)c2oc1=O [WX071] | 2.99 nM | 66 nM | 0.912 mL/min/kg | 83% | 58.2 µM·h | 5.28 h | 4.05 nM | TGI ([3]; 0.5 mpk, 21 days): 91% |
| Cc1c(Nc2ccc(I)cc2F)c2c(=O)n(C3CC3)c(C)c(-c3cccc(C[S+](C)[O-])c3)c2oc1=O (single isomer, unassigned) [WX083] | 8.62 nM | 146 nM | – | – | – | – | 10.5 nM | – |
| CC(=O)Nc1cccc(-c2c(C)n(CCN(C)S(C)(=O)=O)c(=O)c3c(Nc4ccc(I)cc4F)c(C)c(=O)oc23)c1 [WX055] | 643 nM | 71.1 nM | – | – | – | – | 978 nM | – |
| Cc1c(Nc2ccc(I)cc2F)c2c(=O)n(C3CC3)c(C)c(-c3cccc(CN(C)C)c3)c2oc1=O [WX098] | 11.9 nM | 28.5 nM | – | – | – | – | 90.3 nM | – |
| CC(=O)Nc1cccc(-c2c(C)n(C3CC3)c(=O)c3c(Nc4ccc(I)cc4F)c(C)c(=O)oc23)c1 [WX034] | 1.48 nM | 27.8 nM | 1.84 mL/min/kg | 68.7% | 30.5 µM·h | 5.41 h | 6.39 nM | TGI ([3]; 3 mpk, 21 days): 90.6% |
| Cc1c(Nc2ccc(I)cc2F)c2c(=O)n(C3CC3)c(C)c(-c3cccc(NS(C)(=O)=O)c3Cl)c2oc1=O (single isomer, unassigned) [WX117] | – | 424 nM | – | – | – | – | – | IC50 ([1]; read-out: A375 IC50, A375 cells, 3 days incubation): 7.18 nM; IC50 ([5]; read-out: HT29 IC50, HT29 cells, 3 days incubation): 18.7 nM |
| Cc1c(Nc2ccc(I)cc2F)c2c(=O)n(C3CC3)c(C)c(-c3cccc(C[S+](C)[O-])c3)c2oc1=O (single isomer, unassigned) [WX084] | – | 176 nM | – | – | – | – | – | IC50 ([1]; A375 cells, 3 days incubation, read-out: A375 IC50): 6.18 nM; IC50 ([5]; HT29 cells, 3 days incubation, read-out: HT29 IC50): 17.4 nM |
| CC(=O)Nc1ccc(C)c(-c2c(C)n(C3CC3)c(=O)c3c(Nc4ccc(I)cc4F)c(C)c(=O)oc23)c1 [WX036] | 33.6 nM | 44.3 nM | – | – | – | – | 69 nM | – |
| Cc1c(Nc2ccc(I)cc2F)c2c(=O)n(C3CC3)c(C)c(-c3cccc(N[S+]([O-])C(C)(C)C)c3)c2oc1=O (stereo not shown) [WX091] | 10.1 nM | 128 nM | – | – | – | – | 35.6 nM | – |
| CCc1c(Nc2ccc(I)cc2F)c2c(=O)n(C3CC3)c(C)c(-c3cccc(CS(C)(=O)=O)c3C)c2oc1=O [WX110] | 94.5 nM | 93.6 nM | – | – | – | – | 207 nM | – |
| Cc1c(Nc2ccc(I)cc2F)c2c(=O)n(C3CC3)c(C)c(-c3cccc(NC(=O)C4COC4)c3)c2oc1=O [WX065] | 4.31 nM | 36.2 nM | – | – | – | – | 7.38 nM | – |
| Cc1c(Nc2ccc(I)cc2F)c2c(=O)n(C3CC3)c(C)c(-c3cccc(C[S+](C)[O-])c3)c2oc1=O (stereo not shown) [WX068] | 3.66 nM | 35 nM | – | – | – | – | 9.77 nM | – |
| Cc1c(Nc2ccc(I)cc2F)c2c(=O)n(C3CC3)c(C)c(-c3ccnc(NS(C)(=O)=O)c3)c2oc1=O [WX105] | 8.19 nM | 282 nM | – | – | – | – | 16.2 nM | – |

Reference: patent publication US11021486B2, “Coumarin-like cyclic compound as MEK inhibitor and use thereof” (CSTONE PHARMACEUTICALS, priority 2017, dated 2021)
